Assay results taken from US20220326229A1, “ASSAY FOR REAL-TIME SIMULTANEOUS RECRUITMENT OF ARRESTIN ISOFORMS TO G PROTEIN-COUPLED RECEPTORS” (Purdue Research Foundation, priority 2021, published 2022).

Legend:
δ opioid receptor (DOR) = biological target: T1, δ opioid receptor (DOR) (Mus musculus, UniProt P32300); assay: ClickArr assay: simultaneous recruitment of Barr1 (508 nm) and Barr2 (620 nm) to DOR in triply transfected HEK293 cells; assay type: cell-based
T1 construct: influenza signal peptide (N); linker […]; expressed in transfected cells; host or cells: HEK293
T1 sequence (P32300 with tags, fused parts or gaps): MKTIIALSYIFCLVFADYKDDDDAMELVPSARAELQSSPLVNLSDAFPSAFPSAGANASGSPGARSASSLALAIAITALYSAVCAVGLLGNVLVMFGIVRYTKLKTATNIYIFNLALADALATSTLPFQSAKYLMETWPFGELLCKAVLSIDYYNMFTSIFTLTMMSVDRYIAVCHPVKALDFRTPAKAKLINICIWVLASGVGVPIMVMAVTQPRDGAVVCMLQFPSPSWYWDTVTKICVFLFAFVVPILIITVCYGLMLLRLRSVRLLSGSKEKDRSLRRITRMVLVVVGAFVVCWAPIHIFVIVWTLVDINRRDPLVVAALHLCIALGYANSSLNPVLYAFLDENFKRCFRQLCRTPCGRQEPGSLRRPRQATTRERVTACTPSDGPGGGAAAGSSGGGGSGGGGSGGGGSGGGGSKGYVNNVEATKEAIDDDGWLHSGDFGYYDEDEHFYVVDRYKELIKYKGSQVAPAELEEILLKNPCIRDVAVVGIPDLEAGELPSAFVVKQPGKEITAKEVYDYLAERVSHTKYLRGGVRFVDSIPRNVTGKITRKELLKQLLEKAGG

[1] = biological target: T2, dopamine D2 receptor (D2R) (Homo sapiens, UniProt P14416); assay type: cell-based; settings: FIG. 7B; single replicate, pilot experiment
T2 construct: linker […]; expressed in transfected cells; host or cells: HEK293

D2R = D2R (Homo sapiens, UniProt P14416); settings: cited from earlier work
[2] = biological target: T3, D2R-GSSGGGGSGGGGSGGGGSGGGG-CBGct(395-542) (human); assay: split click beetle luciferase complementation (ClickArr), triply transfected cells, UNC9994 dose-response, single replicate
T3 construct: also called D2R-CBGct; dopamine D2 receptor
T3 chain: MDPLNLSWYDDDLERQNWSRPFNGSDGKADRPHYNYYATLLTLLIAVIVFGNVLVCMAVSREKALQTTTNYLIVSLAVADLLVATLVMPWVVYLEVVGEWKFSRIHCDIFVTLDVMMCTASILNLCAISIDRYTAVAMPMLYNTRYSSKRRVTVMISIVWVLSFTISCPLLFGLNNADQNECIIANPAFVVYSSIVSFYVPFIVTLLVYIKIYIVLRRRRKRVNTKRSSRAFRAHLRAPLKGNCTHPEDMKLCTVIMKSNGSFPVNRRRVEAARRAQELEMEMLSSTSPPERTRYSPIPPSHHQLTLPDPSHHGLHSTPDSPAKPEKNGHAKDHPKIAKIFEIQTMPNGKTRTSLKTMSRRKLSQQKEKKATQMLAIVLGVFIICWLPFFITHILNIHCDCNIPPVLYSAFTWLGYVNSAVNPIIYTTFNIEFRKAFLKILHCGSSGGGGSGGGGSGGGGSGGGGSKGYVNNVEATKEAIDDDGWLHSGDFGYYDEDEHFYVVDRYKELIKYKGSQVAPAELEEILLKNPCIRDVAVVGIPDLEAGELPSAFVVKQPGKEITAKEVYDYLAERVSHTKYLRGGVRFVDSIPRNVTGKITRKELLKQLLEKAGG

[3] = biological target: T4, Signal peptide + FLAG tag-KOR-GSSGGGGSGGGGSGGGGSGGGG-CBGct(395-542) (mouse); assay: split click beetle luciferase complementation (ClickArr), triply transfected cells, dynorphin17 dose-response, single replicate
T4 construct: also called kappa opioid receptor-CBGct; kappa opioid receptor
T4 chain: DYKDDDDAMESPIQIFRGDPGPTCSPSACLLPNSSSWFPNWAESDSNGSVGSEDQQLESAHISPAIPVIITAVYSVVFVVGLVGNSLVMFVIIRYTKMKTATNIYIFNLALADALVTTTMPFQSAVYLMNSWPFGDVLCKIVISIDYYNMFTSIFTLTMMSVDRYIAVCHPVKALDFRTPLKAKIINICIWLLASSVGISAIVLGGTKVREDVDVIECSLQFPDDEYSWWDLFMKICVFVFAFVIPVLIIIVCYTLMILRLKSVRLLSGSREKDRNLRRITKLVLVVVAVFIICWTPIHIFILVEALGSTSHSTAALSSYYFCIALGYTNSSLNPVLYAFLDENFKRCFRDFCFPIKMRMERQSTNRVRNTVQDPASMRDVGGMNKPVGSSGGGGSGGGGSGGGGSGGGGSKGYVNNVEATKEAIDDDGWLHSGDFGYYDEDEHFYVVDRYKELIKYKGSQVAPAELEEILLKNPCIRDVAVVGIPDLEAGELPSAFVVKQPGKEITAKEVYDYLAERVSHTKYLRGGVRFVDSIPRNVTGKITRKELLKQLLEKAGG

[4] = biological target: T5, Signal peptide + FLAG tag-DOR-GSSGGGGSGGGGSGGGGSGGGG-CBGct(395-542) (mouse (Mus musculus)); assay: split click beetle luciferase complementation (ClickArr), kinetic read at 508 nm, triply transfected HEK293 cells, 32 µM leu-enkephalin or TAN67
T5 construct: also called optimized DOR construct; DOR-CBGct
T5 chain: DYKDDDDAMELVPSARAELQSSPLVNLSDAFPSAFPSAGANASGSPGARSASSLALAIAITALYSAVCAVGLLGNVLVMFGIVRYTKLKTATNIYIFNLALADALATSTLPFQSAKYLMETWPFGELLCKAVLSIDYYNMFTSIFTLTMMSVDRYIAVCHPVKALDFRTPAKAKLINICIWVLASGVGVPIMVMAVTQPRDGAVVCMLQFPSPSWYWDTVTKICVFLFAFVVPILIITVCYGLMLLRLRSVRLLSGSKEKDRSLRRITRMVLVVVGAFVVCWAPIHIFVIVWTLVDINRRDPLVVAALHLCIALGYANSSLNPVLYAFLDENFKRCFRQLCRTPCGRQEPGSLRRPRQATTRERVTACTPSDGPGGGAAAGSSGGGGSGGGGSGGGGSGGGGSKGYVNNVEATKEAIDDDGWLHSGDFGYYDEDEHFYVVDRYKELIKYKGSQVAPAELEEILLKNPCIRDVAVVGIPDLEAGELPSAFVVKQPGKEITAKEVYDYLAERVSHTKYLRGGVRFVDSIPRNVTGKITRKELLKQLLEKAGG

[5] = biological target: T6, 3xHA-AGTR1(2-360)-GSSGGGGSGGGGSGGGGSGGGG-CBGct(395-542) (human); assay: split click beetle luciferase complementation (ClickArr), triply transfected cells, angiotensin II dose-response, single replicate
T6 construct: also called AGTR1-CBGct; angiotensin type 1 receptor
T6 chain: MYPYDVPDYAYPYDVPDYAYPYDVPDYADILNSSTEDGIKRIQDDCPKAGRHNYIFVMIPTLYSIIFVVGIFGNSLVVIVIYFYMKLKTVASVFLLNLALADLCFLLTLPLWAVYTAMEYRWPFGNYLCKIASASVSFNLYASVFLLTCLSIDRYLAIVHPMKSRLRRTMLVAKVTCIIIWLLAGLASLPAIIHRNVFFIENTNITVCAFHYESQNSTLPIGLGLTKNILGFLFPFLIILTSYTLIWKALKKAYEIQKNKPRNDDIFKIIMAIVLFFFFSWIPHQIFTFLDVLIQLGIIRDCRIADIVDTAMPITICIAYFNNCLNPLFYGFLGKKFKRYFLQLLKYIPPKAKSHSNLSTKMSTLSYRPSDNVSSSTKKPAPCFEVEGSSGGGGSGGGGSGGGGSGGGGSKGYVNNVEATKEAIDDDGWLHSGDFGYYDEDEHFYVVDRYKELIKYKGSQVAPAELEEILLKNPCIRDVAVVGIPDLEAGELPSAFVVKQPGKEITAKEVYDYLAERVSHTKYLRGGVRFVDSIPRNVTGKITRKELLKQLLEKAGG

Which results are given for `Br.Br.CN1CC[C@@]2(c3cccc(O)c3)Cc3nc4ccccc4cc3C[C@@H]2C1` (racemic) [TAN67, (R*,S*)-(±)-2-Methyl-4aa-(3-hydroxyphenyl)-1,2,3,4,4a,5,12,12aa-octahydroquinolino[2,3,3-g]isoquinoline dihydrobromide]?
Δ% efficacy Barr1-Barr2 compared to Leu-Enk (δ opioid receptor (DOR); difference in maximum change in signal between arrestin isoforms, as a percentage of Leu-Enk, n=5-6 biological replicates, FIG. 5C): significant difference in efficacy; Kinetics of Barr1 vs Barr2 recruitment (normalized β-arrestin signal over time) (δ opioid receptor (DOR); saturating concentration (32 μM), n=6 replicates, FIGS. 6A, 6B): Recruitment of Barr1 is much slower than Barr2

Which “Potency of β-arrestin curves relative to published value” [1] does the source give for `Cl.Clc1cccc(C2CCN(CCCOc3ccc4scnc4c3)CC2)c1Cl` [UNC9994, 5-(3-(4-(2,3-dichlorophenyl)piperidin-1-yl)propoxy)benzo[d]thiazole hydrochloride] here?
The value was “as potent or more potent than published values”.

And the “Response: fold change in dopamine receptor:β-arrestin signal” value [1]?
The value was “showed a response”.

What about the EC50 (D2R; Allen et al., PNAS 108(45): 18488-18493 (2011), read-out: Published potency value) of the same molecule?
Its EC50 is 448 nM.

What about the “log10 of published potency value” (D2R; log10 (M) of 448 nM, Allen et al. 2011) of the same molecule?
The value was about −6.3.

B1: CBGnt(1-415)-SGGGGSGGGGSGGGGSGGGGS-Barr1 (other)
chain: MVKREKNVIYGPEPLHPLEDLTAGEMLFRALRKHSHLPQALVDVVGDESLSYKEFFEATVLLAQSLHNCGYKMNDVVSICAENNTRFFIPVIAAWYIGMIVAPVNESYIPDELCKVMGISKPQIVFTTKNILNKVLEVQSRTNFIKRIIILDTVENIHGCESLPNFISRYSDGNIANFKPLHFDPVEQVAAILCSSGTTGLPKGVMQTHQNICVRLIHALDPRVGTQLIPGVTVLVYLPFFHAFGFSITLGYFMVGLRVIMFRRFDQEAFLKAIQDYEVRSVINVPSVILFLSKSPLVDKYDLSSLRELCCGAAPLAKEVAEVAAKRLNLPGIRCGFGLTESTSANIHSLGDEFKSGSLGRVTPLMAAKIADRETGKALGPNQVGELCIKGPMVSKGYVNNVEATKEAIDDDGWLSGGGGSGGGGSGGGGSGGGGSGDKGTRVFKKASPNGKLTVYLGKRDFVDHIDLVDPVDGVVLVDPEYLKERRVYVTLTCAFRYGREDLDVLGLTFRKDLFVANVQSFPPAPEDKKPLTRLQERLIKKLGEHAYPFTFEIPPNLPCSVTLQPGPEDTGKACGVDYEVKAFCAENLEEKIHKRNSVRLVIRKVQYAPERPGPQPTAETTRQFLMSDKPLHLEASLDKEIYYHGEPISVNVHVTNNTNKTVKKIKISVRQYADICLFNTAQYKCPVAMEEADDTVAPSSTFCKVYTLTPFLANNREKRGLALDGKLKHEDTNLASSTLLREGANREILGIIVSYKVKVKLVVSRGGDVAVELPFTLMHPKPKEEPPHREVPENETPVDTNLIELDTNDDDIVFEDFARQRLKGMKDDKEEEEDGTGSPQLNNR
notes: also called optimized Barr1 construct; CBGnt-Barr1
Does B1 bind [2]?
Result: binds

Does B1 bind [3]?
Result: binds

Does B1 bind [4]?
Result: binds

Does B1 bind [5]?
Result: binds
